# Measured values reported in US20230015478A1, “GLP-1 RECEPTOR AGONISTS HAVING IMPROVED PHARMACOLOGICAL AND DRUG DELIVERY PROPERTIES” (priority 2021, published 2023).
# Where two headings read alike, the source gives them in different places. Numbered stars: 1 amine (or outer) side, 2 acyl side, 3 side chain; on linkers, the order of the positions; unused ones are H or OH. Square brackets hold non-standard residues; d marks the D form. Side chains are listed from the residue outwards. Peptide text beside a SMILES is read from it. * marks the point of attachment. Phe(2,6-F2) = N[C@@H](Cc1c(F)cccc1F)C(=O)O; Bip = N[C@@H](Cc1ccc(-c2ccccc2)cc1)C(=O)O; C18 diacid = O=C(O)CCCCCCCCCCCCCCCCC(=O)*; αMePhe(2-F) = C[C@](N)(Cc1ccccc1F)C(=O)O; γGlu = O=C(O)[C@H](CCC(=O)[*:2])N[*:1]; Phe(2-F) = N[C@@H](Cc1ccccc1F)C(=O)O; Phe(2-Me) = Cc1ccccc1C[C@H](N)C(=O)O; hTyr = N[C@@H](CCc1ccc(O)cc1)C(=O)O; hPhe = N[C@@H](CCc1ccccc1)C(=O)O; αMeP = C[C@@]1(C(=O)O)CCCN1; AEEA = NCCOCCOCC(=O)O; Aib = CC(C)(N)C(=O)O
# Molecular target: T1, hGLP1 receptor (Homo sapiens, UniProt P43220)
# T1 construct: expressed in transfected cells; host or cells: HEK (human embryonic kidney) cells co-expressing hGLP1 receptor and CRE-Luciferase
# T1 sequence (P43220 24-463): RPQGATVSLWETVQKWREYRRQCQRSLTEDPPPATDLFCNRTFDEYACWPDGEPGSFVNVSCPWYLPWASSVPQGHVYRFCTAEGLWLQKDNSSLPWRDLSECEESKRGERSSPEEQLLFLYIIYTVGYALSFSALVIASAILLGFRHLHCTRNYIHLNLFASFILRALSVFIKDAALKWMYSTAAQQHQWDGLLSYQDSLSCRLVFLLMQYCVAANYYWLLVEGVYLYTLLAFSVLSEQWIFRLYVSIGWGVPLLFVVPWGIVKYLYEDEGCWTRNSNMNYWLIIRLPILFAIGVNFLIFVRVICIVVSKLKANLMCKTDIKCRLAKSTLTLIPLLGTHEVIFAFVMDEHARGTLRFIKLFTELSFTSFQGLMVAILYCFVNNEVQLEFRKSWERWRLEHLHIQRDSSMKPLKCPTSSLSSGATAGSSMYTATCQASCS
# Experiment: cAMP HTRF agonist assay in HEK cells co-expressing hGLP1 receptor and CRE-Luciferase
# Assay type: cell-based
# How it was run: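 HEK cells co-expressing hGLP1R and CRE-luciferase, 1000 cells/well in DPBS with 500 μM IBMX, exposed to peptides or exendin-4 reference for 30 min; 11-point 1:3 series from top 1.0 μM. cAMP measured by HTRF (665/615 nm) after 1 h at room temperature; EC50 from 4-parameter logistic fit.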
# [1] = cAMP EC50, nM (0.1% albumin), Table 4, 0.1% albumin
# [2] = cAMP EC50, nM (0.1% albumin), Table 6, 0.1% albumin
Structure (SMILES),EC50 [1],EC50 [2],other results
"CC(C)C[C@H](NC(=O)[C@@H](N)CCC(=O)O)C(=O)NC(C)(C)C(=O)N[C@@H](CCC(=O)O)C(=O)NCC(=O)N[C@H](C(=O)N[C@@](C)(Cc1ccccc1F)C(=O)N[C@H](C(=O)N[C@@H](CO)C(=O)N[C@@H](CC(=O)O)C(=O)N[C@@H](Cc1ccc(-c2ccccc2)cc1)C(=O)N[C@@H](Cc1ccc(-c2ccccc2)cc1)C(N)=O)[C@@H](C)O)[C@@H](C)O [2-6, H2N-Glu-Leu-Aib-Glu-Gly-Thr-α-MePhe(2-F)-Thr-Ser-Asp-Bip-Bip-C(O)NH2] (H-EL[Aib]EGT[αMePhe(2-F)]TSD[Bip][Bip]-NH2)",9.2 nM,–,–
"C[C@@H](O)[C@H](NC(=O)CNC(=O)[C@H](CCC(=O)O)NC(=O)C(C)(C)NC(=O)[C@@H](N)Cc1c[nH]cn1)C(=O)N[C@@H](Cc1c(F)cccc1F)C(=O)N[C@H](C(=O)N[C@@H](CO)C(=O)N[C@@H](CC(=O)O)C(=O)N[C@@H](Cc1ccc(-c2ccccc2)cc1)C(=O)N[C@@H](Cc1ccc(-c2ccccc2)cc1)C(N)=O)[C@@H](C)O [3-8, H2N-His-Aib-Glu-Gly-Thr-Phe(2,6F)-Thr-Ser-Asp-Bip-Bip-C(O)NH2] (H-H[Aib]EGT[Phe(2,6-F2)]TSD[Bip][Bip]-NH2)",–,–,"EC50 (Table 1, cells marked (0% albumin), read-out: cAMP EC50, nM (0% albumin)): 0.16 nM"
"Cc1ccccc1C[C@H](NC(=O)[C@@H](NC(=O)CNC(=O)[C@H](CCC(=O)O)NC(=O)C(C)(C)NC(=O)[C@@H](N)Cc1c[nH]cn1)[C@@H](C)O)C(=O)N[C@H](C(=O)N[C@@H](CO)C(=O)N[C@@H](CC(=O)O)C(=O)N[C@@H](Cc1ccc(-c2ccccc2)cc1)C(=O)N[C@@H](Cc1ccc(-c2ccccc2)cc1)C(N)=O)[C@@H](C)O [3-4, H2N-His-Aib-Glu-Gly-Thr-Phe(2-CH3)-Thr-Ser-Asp-Bip-Bip-C(O)NH2] (H-H[Aib]EGT[Phe(2-Me)]TSD[Bip][Bip]-NH2)",–,–,"EC50 (cAMP EC50, nM (0.1% albumin), Table 1, 0.1% albumin): 9.55 nM"
"C[C@@H](O)[C@H](NC(=O)CNC(=O)[C@H](CCC(=O)O)NC(=O)C(C)(C)NC(=O)[C@@H](N)Cc1c[nH]cn1)C(=O)N[C@@](C)(Cc1ccccc1F)C(=O)N[C@H](C(=O)N[C@@H](CO)C(=O)N[C@@H](CC(=O)O)C(=O)N[C@@H](Cc1ccc(-c2ccccc2)cc1)C(=O)N[C@H](Cc1ccc(O)cc1)C(N)=O)[C@@H](C)O [(D)-4-41, H2N-His-Aib-Glu-Gly-Thr-α-MePhe(2-F)-Thr-Ser-Asp-Bip-D-Tyr-C(O)NH2] (H-H[Aib]EGT[αMePhe(2-F)]TSD[Bip][dY]-NH2)",–,130 nM,–
"C[C@@H](O)[C@H](NC(=O)CNC(=O)[C@H](CCC(=O)O)NC(=O)C(C)(C)NC(=O)[C@H](Cc1c[nH]cn1)NC(=O)[C@@H](N)CCC(=O)O)C(=O)N[C@@H](Cc1ccccc1)C(=O)N[C@H](C(=O)N[C@@H](CO)C(=O)N[C@@H](CC(=O)O)C(=O)N[C@@H](Cc1ccc(-c2ccccc2)cc1)C(=O)N[C@@H](Cc1ccc(-c2ccccc2)cc1)C(N)=O)[C@@H](C)O [2-2, H2N-Glu-His-Aib-Glu-Gly-Thr-Phe-Thr-Ser-Asp-Bip-Bip-C(O)NH2] (H-EH[Aib]EGTFTSD[Bip][Bip]-NH2)",40.1 nM,–,–
"C[C@@H](O)[C@H](NC(=O)CNC(=O)[C@H](CCC(=O)O)NC(=O)C(C)(C)NC(=O)[C@H](Cc1c[nH]cn1)NC(=O)[C@@H](N)CCCNC(=N)N)C(=O)N[C@@H](Cc1ccccc1)C(=O)N[C@H](C(=O)N[C@@H](CO)C(=O)N[C@@H](CC(=O)O)C(=O)N[C@@H](Cc1ccc(-c2ccccc2)cc1)C(=O)N[C@@H](Cc1ccc(-c2ccccc2)cc1)C(N)=O)[C@@H](C)O [2-1, H2N-Arg-His-Aib-Glu-Gly-Thr-Phe-Thr-Ser-Asp-Bip-Bip-C(O)NH2] (H-RH[Aib]EGTFTSD[Bip][Bip]-NH2)",10.6 nM,–,–
"C[C@@H](O)[C@H](NC(=O)CNC(=O)[C@H](CCC(=O)O)NC(=O)C(C)(C)NC(=O)[C@@H](N)Cc1c[nH]cn1)C(=O)N[C@@](C)(Cc1ccccc1F)C(=O)N[C@H](C(=O)N[C@@H](CO)C(=O)NC(C)(C)C(=O)N[C@@H](Cc1ccc(-c2ccccc2)cc1)C(=O)N[C@@H](Cc1ccc(-c2ccccc2)cc1)C(N)=O)[C@@H](C)O [3-37, H2N-His-Aib-Glu-Gly-Thr-αMePhe(2-F)-Thr-Ser-Aib-Bip-Bip-C(O)NH2] (H-H[Aib]EGT[αMePhe(2-F)]TS[Aib][Bip][Bip]-NH2)",–,–,"EC50 (cAMP EC50, nM (0.1% albumin), Table 3, 0.1% albumin): 91.6 nM"
"C[C@@H](O)[C@H](NC(=O)CNC(=O)[C@H](CCC(=O)O)NC(=O)[C@]1(C)CCCN1C(=O)[C@@H](N)Cc1c[nH]cn1)C(=O)N[C@@](C)(Cc1ccccc1F)C(=O)N[C@H](C(=O)N[C@@H](CO)C(=O)N[C@@H](CC(=O)O)C(=O)N[C@@H](Cc1ccc(-c2ccccc2)cc1)C(=O)N[C@@H](Cc1ccc(-c2ccccc2)cc1)C(N)=O)[C@@H](C)O [3-40, H2N-His-α-MePro-Glu-Gly-Thr-α-MePhe(2-F)-Thr-Ser-Asp-Bip-Bip-C(O)NH2] (H-H[αMeP]EGT[αMePhe(2-F)]TSD[Bip][Bip]-NH2)",0.003 nM,–,"potency compared with the parent peptide analog (1-2) (replacement of Aib2, in words): significantly greater potency"
"C[C@H](NC(=O)[C@@H](NC(=O)[C@H](Cc1ccccc1F)NC(=O)[C@@H](NC(=O)CNC(=O)[C@H](CCC(=O)O)NC(=O)C(C)(C)NC(=O)[C@@H](N)Cc1c[nH]cn1)[C@@H](C)O)[C@@H](C)O)C(=O)N[C@@H](CC(=O)O)C(=O)N[C@@H](Cc1ccc(-c2ccccc2)cc1)C(=O)N[C@@H](Cc1ccc(-c2ccccc2)cc1)C(N)=O [3-26, H2N-His-Aib-Glu-Gly-Thr-Phe(2-F)-Thr-Ala-Asp-Bip-Bip-C(O)NH2] (H-H[Aib]EGT[Phe(2-F)]TAD[Bip][Bip]-NH2)",–,–,"EC50 (cAMP EC50, nM (0.1% albumin), Table 2, 0.1% albumin): 18.9 nM"
"C[C@@H](O)[C@H](NC(=O)CNC(=O)[C@H](CCC(=O)O)NC(=O)C(C)(C)NC(=O)[C@H](Cc1c[nH]cn1)NC(=O)CN)C(=O)N[C@@H](Cc1ccccc1)C(=O)N[C@H](C(=O)N[C@@H](CO)C(=O)N[C@@H](CC(=O)O)C(=O)N[C@@H](Cc1ccc(-c2ccccc2)cc1)C(=O)N[C@@H](Cc1ccc(-c2ccccc2)cc1)C(N)=O)[C@@H](C)O [2-3, H2N-Gly-His-Aib-Glu-Gly-Thr-Phe-Thr-Ser-Asp-Bip-Bip-C(O)NH2] (H-GH[Aib]EGTFTSD[Bip][Bip]-NH2)",21.1 nM,–,–

# The next lines start with results.
EC50 [1],EC50 [2],Structure (SMILES),other results
–,10 nM,"C[C@@H](O)[C@H](NC(=O)CNC(=O)[C@H](CCC(=O)O)NC(=O)C(C)(C)NC(=O)[C@@H](N)Cc1c[nH]cn1)C(=O)N[C@@](C)(Cc1ccccc1F)C(=O)N[C@H](C(=O)N[C@@H](CO)C(=O)N[C@@H](CC(=O)O)C(=O)N[C@@H](Cc1ccc(-c2ccccc2)cc1)C(=O)N[C@@H](Cc1ccc(-c2ccccc2)cc1)C(=O)NCCOCCOCC(=O)NCCOCCOCC(N)=O)[C@@H](C)O [4-29, H2N-His-Aib-Glu-Gly-Thr-α-MePhe(2F)-Thr-Ser-Asp-Bip-Bip-C(O)(AEEA)2-NH2] (H-H[Aib]EGT[αMePhe(2-F)]TSD[Bip][Bip][AEEA][AEEA]-NH2)",–
–,67.2 nM,"C[C@@H](O)[C@H](NC(=O)CNC(=O)[C@H](CCC(=O)O)NC(=O)C(C)(C)NC(=O)[C@@H](N)Cc1c[nH]cn1)C(=O)N[C@@](C)(Cc1ccccc1F)C(=O)N[C@H](C(=O)N[C@@H](CO)C(=O)N[C@@H](CC(=O)O)C(=O)N[C@@H](Cc1ccc(-c2ccccc2)cc1)C(=O)N[C@@H](CCc1ccccc1)C(=O)NCCOCCOCC(=O)NCCOCCOCC(N)=O)[C@@H](C)O [4-35, H2N-His-Aib-Glu-Gly-Thr-α-MePhe(2-F)-Thr-Ser-Asp-Bip-Hph-C(O)NH-RY1] (H-H[Aib]EGT[αMePhe(2-F)]TSD[Bip][hPhe][AEEA][AEEA]-NH2)",–
–,453 nM,"C[C@@H](O)[C@H](NC(=O)CNC(=O)[C@H](CCC(=O)O)NC(=O)[C@]1(C)CCCN1C(=O)[C@@H](N)Cc1c[nH]cn1)C(=O)N[C@@](C)(Cc1ccccc1F)C(=O)N[C@H](C(=O)N[C@@H](CO)C(=O)N[C@@H](CC(=O)O)C(=O)N[C@@H](Cc1ccc(-c2ccccc2)cc1)C(=O)N[C@@H](Cc1ccc(-c2ccccc2)cc1)C(=O)NC(C)(C)C(=O)N[C@@H](CCCCNC(=O)COCCOCCNC(=O)COCCOCCNC(=O)CC[C@H](NC(=O)CCCCCCCCCCCCCCCCC(=O)O)C(=O)O)C(N)=O)[C@@H](C)O [4-64, H2N-His-α-MePro-Glu-Gly-Thr-α-MePhe(2-F)-Thr-Ser-Asp-Bip-Bip-C(O)NH.RY20] (H-H[αMeP]EGT[αMePhe(2-F)]TSD[Bip][Bip][Aib]K([AEEA-AEEA-γGlu-C18 diacid])-NH2)",–
–,33.7 nM,"C[C@@H](O)[C@H](NC(=O)CNC(=O)[C@H](CCC(=O)O)NC(=O)C(C)(C)NC(=O)[C@@H](N)Cc1c[nH]cn1)C(=O)N[C@@](C)(Cc1ccccc1F)C(=O)N[C@H](C(=O)N[C@@H](CO)C(=O)N[C@@H](CC(=O)O)C(=O)N[C@@H](Cc1ccc(-c2ccccc2)cc1)C(=O)N[C@@H](Cc1ccc(-c2ccccc2)cc1)C(=O)NC(C)(C)C(=O)NCC(=O)NCC(=O)N[C@@H](CCCCN)C(N)=O)[C@@H](C)O [4-33, H2N-His-Aib-Glu-Gly-Thr-α-MePhe(2F)-Thr-Ser-Asp-Bip-Bip-Aib-(Gly)2-Lys-NH2] (H-H[Aib]EGT[αMePhe(2-F)]TSD[Bip][Bip][Aib]GGK-NH2)",–
–,16.6 nM,"C[C@@H](O)[C@H](NC(=O)CNC(=O)[C@H](CCC(=O)O)NC(=O)C(C)(C)NC(=O)[C@@H](N)Cc1c[nH]cn1)C(=O)N[C@@](C)(Cc1ccccc1F)C(=O)N[C@H](C(=O)N[C@@H](CO)C(=O)N[C@@H](CC(=O)O)C(=O)N[C@@H](Cc1ccc(-c2ccccc2)cc1)C(=O)N[C@@H](CCc1ccc(O)cc1)C(N)=O)[C@@H](C)O [4-4, H2N-His-Aib-Glu-Gly-Thr-α-MePhe(2-F)-Thr-Ser-Asp-Bip-Hph(4-OH)-C(O)NH2] (H-H[Aib]EGT[αMePhe(2-F)]TSD[Bip][hTyr]-NH2)","EC50 (Table 5, 0% albumin, read-out: cAMP EC50, nM (0% albumin)): 16.6 nM"
